Test results as given in patent US10588978B2, “Pharmaceutical composition containing imidazoline derivative” (priority 2016, dated 2020).
pIC50: −log10 of the molar value. Like-named read-outs stand apart in the source and are kept apart here.

Legend:
AIPC [1] = conditions: mouse; cited from earlier work
AIPC [2] = conditions: human; cited from earlier work
tumor cell growth = conditions: cited from earlier work
[3] = same dose, same solvent; cited from earlier work
AR [4] = target: T1, AR (Homo sapiens, UniProt P10275); conditions: cited from earlier work
T1 sequence (P10275 1-920): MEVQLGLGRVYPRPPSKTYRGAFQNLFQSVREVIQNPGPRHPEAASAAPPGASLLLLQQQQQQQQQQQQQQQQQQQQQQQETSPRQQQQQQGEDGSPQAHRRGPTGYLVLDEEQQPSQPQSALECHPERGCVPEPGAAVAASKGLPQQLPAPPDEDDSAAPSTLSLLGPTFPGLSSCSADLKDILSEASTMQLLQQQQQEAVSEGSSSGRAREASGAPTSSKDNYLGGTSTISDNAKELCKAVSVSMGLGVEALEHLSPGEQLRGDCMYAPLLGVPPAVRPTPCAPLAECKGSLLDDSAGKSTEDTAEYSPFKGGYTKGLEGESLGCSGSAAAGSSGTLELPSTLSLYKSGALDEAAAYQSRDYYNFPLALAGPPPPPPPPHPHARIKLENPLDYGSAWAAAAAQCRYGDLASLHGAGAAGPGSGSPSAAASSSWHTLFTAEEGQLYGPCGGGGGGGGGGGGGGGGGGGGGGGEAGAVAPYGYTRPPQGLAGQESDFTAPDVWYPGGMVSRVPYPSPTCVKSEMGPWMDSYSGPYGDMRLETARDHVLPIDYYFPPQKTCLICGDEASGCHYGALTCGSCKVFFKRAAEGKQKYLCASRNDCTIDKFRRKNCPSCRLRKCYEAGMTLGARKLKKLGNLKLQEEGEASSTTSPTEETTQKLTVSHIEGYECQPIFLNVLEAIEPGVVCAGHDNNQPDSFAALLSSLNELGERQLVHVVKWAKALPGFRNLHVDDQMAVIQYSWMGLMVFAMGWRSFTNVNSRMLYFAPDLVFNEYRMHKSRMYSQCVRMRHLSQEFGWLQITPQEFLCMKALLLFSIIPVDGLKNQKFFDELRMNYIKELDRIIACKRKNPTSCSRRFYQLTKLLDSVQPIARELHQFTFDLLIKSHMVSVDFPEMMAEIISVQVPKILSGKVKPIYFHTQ

[5] = tested on: five major subtypes of CYP450; conditions: all five subtypes; read-out: inhibition half lives on five major subtypes of CYP450; cited from earlier work
[6] = Studies on stability of the compound; assay type: physicochemical
AR [7] = target: T1, AR; conditions: cited from earlier work; remark: listed apart in the source
[8] = same dose, same solvent; cited from earlier work; remark: listed apart in the source
[9] = Solubility of the compound in compositions with conventional auxiliaries; assay type: physicochemical
[10] = mice; relative to MDV-3100; cited from earlier work

SMILES | inhibition of growth of AIPC (AIPC [1]) | inhibition of growth of AIPC (AIPC [2]) | effect of promoting tumor cell growth (tumor cell growth) | in vivo exposure in rats relative to MDV-3100 [3] | activity in vitro relative to MDV-3100 (AR [4]) | pIC50 [5] | stability of the compound [6] | AR agonist activity (AR [7]; at 3 μM) | AR agonist activity (AR [7]; at 10 μM) | in vivo exposure in dogs relative to MDV-3100 [8] | solubility in compositions prepared with conventional auxiliaries [9] | ratio of the drug concentration in brain tissue to the drug concentration in plasma [10]
CNC(=O)c1ccc(N2C(=S)N(c3ccc(C#N)c(C(F)(F)F)c3)C(=O)C2(C)C)cc1F [MDV-3100] | can inhibit the growth of AIPC | can inhibit the growth of AIPC | no effect of promoting tumor cell growth |  |  |  |  |  |  |  |  | 
CC1(C)C(=O)N(c2ccc(C#N)c(C(F)(F)F)c2)C(=S)N1c1ccc(OC[C@@H](O)CO)cc1 [compound of formula (I), (S)-4-(3-(4-(2,3-dihydroxypropoxy)phenyl)-4,4-dimethyl-5-carbonyl-2-thioimidazolin-1-yl)-2-(trifluoromethyl)benzonitrile] |  |  |  | comparable to that of MDV-3100 | slightly better than that of MDV-3100 | < 4.30 | poor stability | no AR agonist activity | no AR agonist activity | more than six times that of MDV-3100 | poorly soluble | much lower than that of MDV-3100
